Assay results reported in US20250213593A1, “Use of Derivatives based on Sarsasapogenin Structure and Pharmaceutical Compositions thereof” (BEIJING PHYTOVENT PHARMACEUTICAL TECHNOLOGY CO., LTD., priority 2022, published 2025).
Like-named read-outs stand apart in the source and are kept apart here.

What was measured:
[1] = test system: transgenic AD mice (C57BL/6J background); experiment: Water maze test of AD mice; conditions: 6 months after administration
Source text: • Experimental and analytical method: in this experiment, transgenic mice from APP/P Embodiment 13B were used, and background mice were C57BL/6J. […] The process of the water maze test was divided into three stages: the first stage lasted for 1 day; and in order to adapt to this stage, there was an escape platform having a diameter of 8 cm in a large pool having a diameter of 1.2 m, and there were four marks of circle, triangle, box and fork in four directions of east, west, north and south on the pool wall as hints of spatial positions. The rats were sequentially placed into transparent water along the pool wall, with the water surface 1 cm below the escape platform. The mice would easily find the escape platform, and was then rescued from the water maze after climbing onto the platform, thereby learning basic rules of the water maze. The second stage lasted for 4 days and was a training stage. The settings for the tool remained unchanged, the water surface was raised to 1 cm above the escape platform, and ink was poured to strain the water black, so that the escape platform was not visible. Every day, the mice were put into the pool from the four directions of the east, south, west and north, and rescued after successfully climbing onto the escape platform. […]

[2] = test system: transgenic AD mice (C57BL/6J background); experiment: Light/dark box test of AD mice; type: in vivo, mouse; conditions: 6 months after administration
Source text: The principle of the light/dark box test is: the mice have a natural tendency to darkness; and after the mice was put into a light box, the mice would spontaneously enter a connected dark box. However, in this experiment, the dark box was equipped with an electrical stimulation mechanism, and the mice would be shocked when they entered the dark box.

[3] = test system: transgenic AD mice (C57BL/6J background); experiment: Nesting behaviors of AD mice; type: in vivo, mouse; conditions: administered from 2 months of age; tested 3 and 6 months after administration
Source text: One symptom of AD patients was the inability to take care of themselves, while nesting behaviors reflected the self-care level of the mice. At the beginning of the experiment, 10 pieces of rectangular paper were placed neatly in mouse cages in order. Normal mice would tear up pieces of paper and build nests, while mice with severe AD symptoms would not tear up pieces of paper and build nests.

Mia paca-2 cells = experiment: In-vitro killing of pancreatic cancer cells (CellTiter-Glo); type: cell-based; conditions: 11 small molecules, max 10 uM, 3-fold dilution
Experimental: • Experimental and analytical method: we used Mia paca-2 cells as a research object. This cell line was a pancreatic cancer cell line and was widely used in an antimicrobial susceptibility experiment. We performed the antimicrobial susceptibility experiment on 11 small molecules, with a maximum concentration of 10 uM and a 3-fold dilution, resulting in a concentration gradient of seven points. Cell viability assay was performed using CellTiter-Glo, and a dosage-response curve was plotted using GraphPad Prism. A resulting antimicrobial susceptibility curve was shown in the figure below. • Results: the antimicrobial susceptibility curve was shown in FIG. 53, where a lower IC50 value indicates a higher sensitivity to the small molecule.

[4] = test system: Lepr gene mutant (DB) mice; experiment: Excessive urination in DB animals; type: in vivo, mouse; conditions: 80 mpk by gavage once every two days, 5 weeks; vs model group
Source text: • Experimental and analytical method: leptin receptor gene (OB-R) was also known as diabetes gene (db), leptin receptor (Lepr) is closely related to obesity, hypertension, diabetes, lipid metabolism disorders, etc. The courses of these diseases are greatly influenced by the genetic background. Topical insulin can not control the increase in blood glucose and gluconeogenesis levels in the liver. Gene editing technologies and embryo injection technologies were used to construct Lepr gene mutant mice. […] The urine volume of each mouse of this strain was as huge as hundreds of times that of normal mice, so patients with frequent urination could be simulated. The experiment was divided into three groups, i.e., a model group (non-administrated, onset mice with high urine volume), a control group (non-administrated, non-onset normal mice), and an experimental group (administrated Embodiment 1A, 80 mpk, by gavage once every two days), with 2 mice in the control group, and 3 mice in the other two groups. The small molecule used was Embodiment 1A. We observed the urine volume in cages of mice housed in single cages starting from Week 8 and after 5 weeks of continuous drug treatment. […] Experiment 32. Cardiovascular Inflammation Alleviation Effect on APOE Mutant Mice Fed with High-Fat Diets.

[5] = test system: U937 (histiocytic lymphoma cells); experiment: Cell proliferation assay, U937; type: cell-based; conditions: Homo sapiens, U-937, 72 h
Experimental: (§1) • Experimental and analytical method: cells were inoculated into a 96-well cell culture plate with a lid at a maximum concentration of 10 μM for a test compound, and diluted in three folds to a series of test concentrations, and cells were incubated at 37° C., 5% CO2 for 72 h. The concentration of DMSO was 0.5%, 100 μl of medium was taken from each well. 100 μl of reagent (Celltitute Glo Assay Kit) was added to each well, and a flat plate was shaken on a plate shaker (protected from light) for 2 min. A culture plate was incubated (protected from light) at room temperature for 30 min. Chemiluminescence values were recorded by a multi-plate plate reader, and the experimental results were as follows:
(§2) U937 (histiocytic lymphoma cells), OCI-LY3 (human diffuse large B-cell lymphoma cells), U2932 (human diffuse large B-cell lymphoma cells), and HT cells (human mixed lymphoma cells) were analyzed in the table for experimental analysis of cell proliferation.

[6] = test system: HT cells (human mixed lymphoma cells); experiment: Cell proliferation assay, HT; type: cell-based; conditions: Homo sapiens, HT, 72 h
Experimental: as §1, §2

[7] = test system: U2932 (human diffuse large B-cell lymphoma cells); experiment: Cell proliferation assay, U2932; type: cell-based; conditions: U2932, 72 h
Experimental: as §1, §2

[8] = test system: OCI-LY3 (human diffuse large B-cell lymphoma cells); experiment: Cell proliferation assay, OCI-LY3; type: cell-based; conditions: Homo sapiens, OCI-Ly3, 72 h
Experimental: as §1, §2

hippocampal neurons = experiment: L-cysteine-induced neuronal excitotoxicity; type: cell-based, SD rats; conditions: compound 1 μM, 24 h before inducer
Experimental: Experimental and analytical method: before the experiment, a 24-well cell culture plate was pretreated with Poly-D-lysine and placed in a cell incubator at 37° C. and 5% CO2 overnight. SD rats, 18 days pregnant, were ordered, brains of fetal rats (E18-19) were dissected, and hippocampal neurons in the brains were subjected to primary culture in a neuronal medium using a 24-well plate, and then cultured by a serum-free medium. The hippocampal neurons were cultured in a cell incubator at 37° C., 5% CO2 for 19 days (DIV19), then added with a compound to be tested (a final concentration of 1 μM) and a positive control AP5 [(2R)-amino-5-phosphonopentanoic acid(phosphonatopentanoate)] (a final concentration of 100 μM), cultured for 24 h, and then added with L-Cystine (400 μM) and NaHCO3 (10 mM). After 18 h, Hoechst3342 (2.5 μg/ml) was added for cell staining. The cells were placed in the incubator and cultured for 15 min, and photographed using the high-content fluorescence microscope, wherein 6 random non-overlapping fields were photographed for each duplicate well, and the total number of neurons and the number of dead neurons were counted with software Image J. The obtained data was used to determine whether there was a difference between a drug treatment group and a control group.
Compound treatment: 32 small molecule compounds in Embodiment 1 to Embodiment 19A were diluted with DMSO to a 1 mM mother solution; and 1 μL of mother solution was added to 1 ml of culture solution per well in a 24-well plate to a final concentration of 1 μM, wherein a positive control compound was […] of AP5 (100 mM mother solution), and a negative control was 1 μl of DMSO.

CCN1CCN(C2CCN(C(=O)CC(=O)NC3CC[C@]4(C)C5CC[C@]6(C)[C@@H]7[C@H](C[C@H]6[C@@H]5CC[C@@H]4C3)O[C@]3(CC[C@H](C)CO3)[C@H]7C)CC2)CC1 (stereo partly drawn) [Embodiment 25]
dwell time in a target quadrant [1]: most obvious | number of platform shuttles [1]: most obvious | memory on electric shock (latency before entering the dark box) [2]: could effectively enhance the memory | nesting behavior score [3]: most obvious

C[C@H]1CC[C@@]2(OC1)O[C@H]1C[C@H]3[C@@H]4CC[C@@H]5C[C@@H](NC(=O)CC(=O)N6CCN(C7CCN(C)CC7)CC6)CC[C@]5(C)C4CC[C@]3(C)[C@H]1[C@@H]2C (stereo partly drawn) [Embodiment 26A]
sensitivity of Mia paca-2 cells (IC50 comparison) (Mia paca-2 cells): highest sensitivity

C[C@H]1CC[C@@]2(OC1)O[C@H]1C[C@H]3[C@@H]4CC[C@@H]5C[C@@H](NC(=O)CCN6CCN(C)CC6)CC[C@]5(C)[C@H]4CC[C@]3(C)[C@H]1[C@@H]2C [Embodiment 1A]
urine wetting area in mouse cage [4]: significantly reduced | IC50 ([5]; low sugar, read-out: U937 (IC50, uM) Low sugar): 1.8 µM | IC50 ([5]; normal sugar, read-out: U937 (IC50, uM) Normal sugar): 2.13 µM | IC50 [6]: 1640 nM | IC50 [7]: 620 nM | IC50 [8]: 1900 nM | protective effects on L-Cystine (400 μM)-induced neuronal excitotoxicity (hippocampal neurons): protective effects
